Experiments:
[1] = tested on: three-week old E. faecalis biofilm; experiment: biofilm disruption assay on infected dentin samples (Example 2); type: cell-based, E. faecalis (ATCC 29212); settings: immersion 5 minutes
Procedure: Unidentified intact human teeth were collected, stored in 0.1% thymol solution at 4° C., and used within 6 months after obtaining local Institutional Review Board approval (IRB #1409251353). A standardized radicular dentin sample (4×4×1 mm^3) was obtained from each root using a slow diamond saw (IsoMet, Buehler, Lake Bluff, Ill.) under continuous distilled water irrigation. The pulpal side of each specimen was wet-finished with silicon carbide abrasive papers (500-2400 grit, Struers, Cleveland, Ohio). The polished samples were then sonicated in deionized water for 3 minutes, washed with sterile water, wrapped individually with moist cotton pellets, placed in Whirl-pak bags (Sigma-Aldrich, St Louis, Mo.), gas sterilized with ethylene oxide, and stored at 4° C. until used. E. faecalis (ATCC 29212) was grown initially on anaerobic blood agar plates (CDC, BioMerieux, Durham, N.C.). Colonies of E. faecalis were then suspended in brain-heart infusion (BHI) broth supplemented with 5 grams yeast extract/L (BHI-YE) and incubated for 24 hours at 37° C. with 5% CO2. Dentin samples were placed individually in separate wells of a 96-sterile well plate (Fisherbrand, Fischer Scientific) with the pulpal side facing upwards. […] The CFUs/mL were quantified using an automated colony counter (Synbiosis, Inc., Frederick, Md.). Summary statistics were calculated for the log-transformed data from each group. […]

[2] = tested on: stem cells from apical papillae and dental pulp stem cells; settings: 2% CHX; in vitro studies; cited from earlier work

SMILES | antibiofilm effect (log CFU/mL) ([1]; 2% CHX, versus control groups, not complete eradication) | effect on survival and attachment of stem cells from apical and dental pulp [2] | antibiofilm effect (log CFU/mL) ([1]; 1.5% NaOCl)
N=C(NCCCCCCNC(=N)NC(=N)Nc1ccc(Cl)cc1)NC(=N)Nc1ccc(Cl)cc1 [CHX] | significant reduction in E. faecalis biofilm | highly unfavorable effects | 
OCl [NaOCl, sodium hypochlorite] |  |  | complete eradication
